Laboratory results: ChEMBL document CHEMBL1201862, “PubChem BioAssay data set” (2004)
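48-hour exposure; five concentrations; linearly interpolated endpoints. GI50 is the concentration that inhibits growth by half.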 Active and inactive are the calls of the source. No stated cut-off is given here; in the data, active = GI50 up to about 1.1 µM and inactive = higher.

Key:
Assay in all cases: DTP human tumour cell line panel, 48 h
A549 = test system: A549
BT-549 = test system: BT-549
CCRF-CEM = test system: CCRF-CEM
EKVX = test system: EKVX
HCT-116 = test system: HCT-116
HT-29 = test system: HT-29
MDA-MB-435 = test system: MDA-MB-435
Malme-3M = test system: Malme-3M
NCI-H226 = test system: NCI-H226
NCI/ADR-RES = test system: NCI/ADR-RES
OVCAR-4 = test system: OVCAR-4
PC-3 = test system: PC-3
RPMI-8226 = test system: RPMI-8226
SF-268 = test system: SF-268
SF-295 = test system: SF-295
SK-MEL-2 = test system: SK-MEL-2
SN12C = test system: SN12C
SR = test system: SR
SW-620 = test system: SW-620
TK-10 = test system: TK-10

Measured: GI50

CCCn1cnc2c(SCC(=O)O)nc(N)nc21
inactive: A549 > 100 µM | BT-549 > 100 µM | CCRF-CEM > 100 µM | EKVX > 100 µM | HCT-116 > 100 µM | HT-29 > 100 µM | MDA-MB-435 > 100 µM | Malme-3M > 100 µM | NCI-H226 > 100 µM | NCI/ADR-RES > 100 µM | OVCAR-4 > 100 µM | PC-3 > 100 µM | RPMI-8226 > 100 µM | SF-268 > 100 µM | SF-295 > 100 µM | SK-MEL-2 > 100 µM | SN12C > 100 µM | SR > 100 µM | SW-620 > 100 µM | TK-10 > 100 µM

CN1CCN(c2nc3c(c(=O)n(C)c(=O)n3C)n2C)CC1
inactive: A549 > 100 µM | BT-549 > 100 µM | CCRF-CEM > 100 µM | EKVX > 100 µM | HCT-116 > 100 µM | HT-29 > 100 µM | MDA-MB-435 > 100 µM | Malme-3M > 100 µM | NCI-H226 > 100 µM | NCI/ADR-RES > 100 µM | OVCAR-4 > 100 µM | PC-3 > 100 µM | RPMI-8226 > 100 µM | SF-268 > 100 µM | SF-295 > 100 µM | SK-MEL-2 > 100 µM | SN12C > 100 µM | SR > 100 µM | SW-620 > 100 µM | TK-10 > 100 µM

N#CCCOc1cccc(C2(N3CCCCC3)CCCCC2)c1
inactive: A549 > 100 µM | BT-549 > 100 µM | CCRF-CEM > 100 µM | EKVX > 100 µM | HCT-116 > 100 µM | HT-29 > 100 µM | MDA-MB-435 > 100 µM | Malme-3M > 100 µM | NCI-H226 > 100 µM | NCI/ADR-RES > 100 µM | OVCAR-4 > 100 µM | PC-3 > 100 µM | RPMI-8226 > 100 µM | SF-268 > 100 µM | SF-295 > 100 µM | SK-MEL-2 > 100 µM | SN12C > 100 µM | SR > 100 µM | SW-620 > 100 µM | TK-10 > 100 µM

C=C1C(=O)OC2C1CCC(=C)C1CC(O)C(=C)C12 (stereo not given)
inactive: A549 23.8 µM | BT-549 15.3 µM | CCRF-CEM 2.21 µM | EKVX 7.16 µM | HCT-116 12.7 µM | HT-29 5.57 µM | MDA-MB-435 19.5 µM | Malme-3M 14.3 µM | NCI-H226 27.1 µM | NCI/ADR-RES 24 µM | OVCAR-4 16.2 µM | PC-3 13.4 µM | RPMI-8226 5.78 µM | SF-268 15.4 µM | SF-295 38.5 µM | SK-MEL-2 14.3 µM | SN12C 16.2 µM | SR 3.22 µM | SW-620 16 µM | TK-10 8.02 µM

CCCNC(=O)Cn1c(C)cc2ccccc21
inactive: A549 > 100 µM | BT-549 > 100 µM | CCRF-CEM > 100 µM | EKVX > 100 µM | HCT-116 > 100 µM | HT-29 > 100 µM | MDA-MB-435 > 100 µM | Malme-3M > 100 µM | NCI-H226 > 100 µM | NCI/ADR-RES > 100 µM | OVCAR-4 > 100 µM | PC-3 > 100 µM | RPMI-8226 > 100 µM | SF-268 > 100 µM | SF-295 > 10 µM | SK-MEL-2 > 100 µM | SN12C > 100 µM | SR > 100 µM | SW-620 > 100 µM | TK-10 > 100 µM
